According to ChEMBL document CHEMBL1144789, “Identification of fredericamycin E from Streptomyces griseus: Insights into fredericamycin A biosynthesis highlighting carbaspirocycle formation” (J Nat Prod, 2008):

Legend:
Format in all cases: functional, cell-based
[1] = Cytotoxicity against mouse P388D1 cells by calcein AM/[…] fluorometric detection
MCF7 = experiment: Cytotoxicity against human MCF7 cells by calcein AM/[…] fluorometric detection
A549 = experiment: Cytotoxicity against human A549 cells by calcein AM/[…] fluorometric detection
HT-29 = experiment: Cytotoxicity against human HT29 cells by calcein AM/[…] fluorometric detection
DU-145 = experiment: Cytotoxicity against human Du145 cells by calcein AM/[…] fluorometric detection
HCT-15 = experiment: Cytotoxicity against human HCT15 cells by calcein AM/[…] fluorometric detection

Row | SMILES | EC50 [1] | EC50 (MCF7) | EC50 (A549) | EC50 (HT-29) | EC50 (DU-145) | EC50 (HCT-15)
1 | C/C=C/C=C/c1cc2cc3c(c(O)c2c(=O)[nH]1)[C@@]1(CC3)C(=O)c2c(O)c3c(c(O)c2C1=O)C(=O)C(OC)=CC3=O [FDM A] | 0.05 µM | 0.36 µM | 1.8 µM | 0.57 µM | 2.7 µM | 2.4 µM
2 | C/C=C/C=C/c1cc2cc3c(c(O)c2c(=O)[nH]1)[C@@]1(CC3)C(=O)C(=O)c2c(c(O)c3c(O)c(OC)cc(O)c3c2O)C1=O [FDM E] | 0.17 µM | 7.3 µM | 4.1 µM | 3.6 µM | 8.1 µM | 4 µM
